# Source: patent publication US12697313B2, “Methods of treating anemia using formoterol or a pharmaceutically acceptable salt thereof” (Dana-Farber Cancer Institute, Inc., priority 2022, dated 2026)
# Counter-ions that a name gives are not always drawn.
# System: phenylhydrazine (PHZ)-treated mice
# Experiment: FF/Arf i.p. in PHZ-treated mice at sub-lethal dose of 60 mg/kg
# Assay type: in vivo
structure (smiles),measurement,setting,value
"COc1ccc(C[C@@H](C)NC[C@H](O)c2ccc(O)c(NC=O)c2)cc1 [Arf, N-[2-hydroxy-5-[(1R)-1-hydroxy-2-[[(1R)-2-(4-methoxyphenyl)-1-methylethyl]amino]ethyl]phenyl]-formamide, (2R,3R)-2,3-dihydroxybutanedioate (1:1 salt)]",transferrin receptor expression in CFU-e derived from BMPs,FIG. 39B,transferrin receptor expression is enhanced
same,Hemoglobin (Hb) in peripheral blood,"after 7 and 14 days of i.p., FIG. 35",increase Hemoglobin (Hb)
same,RBC parameters (HCT % and RBCs) in peripheral blood,"after 7 days of i.p., FIG. 34",increases RBC parameters
same,LS-K and LSK cells in bone marrow progenitors,"after 14 days of i.p., FIG. 36A-36B","increase LSK, LS-K, and mitochondrial activity"
same,mitochondrial membrane potential (TMRE staining) in bone marrow progenitors,"after 14 days of i.p., FIG. 36C","increase LSK, LS-K, and mitochondrial activity"
same,megakaryocyte erythrocyte progenitors (MEP) in BM,"after 14 days of i.p., FIG. 37A",increase megakaryocyte erythrocyte progenitors (MEP)
same,body weights,"i.p., PHZ 60 mg/kg, FIG. 32",enhances body weights
same,platelets and WBCs in peripheral blood,"i.p., PHZ 60 mg/kg, FIG. 33",do not affect platelets and WBCs
